The results in this text go back to patent publication US12077503B2, “Substituted cyclic amides and their use as herbicides” (FMC CORPORATION, priority 2015, dated 2024).

Data set [1] deals with blackgrass (Alopecurus myosuroides). In words: Test A postemergence. The class given is in vivo. The following applies: Alopecurus myosuroides, post-emergence, 240 h; for pest or weed control at 125 g/ha: 125 g ai/ha; for pest or weed control at 500 g/ha: 500 g ai/ha, visual injury, approx. 10 d. Summed up: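 Seeds sprayed preemergence with a directed soil spray, or plants at 2 to 10 cm height and one- to two-leaf stage sprayed postemergence, with test chemicals in a non-phytotoxic solvent mixture containing surfactant, in loam soil–sand blend. Injury rated visually against untreated controls after about 10 d in greenhouse, 0 (no effect) to 100 (complete control).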

The test system of a further data set is rice (Oryra sativa). In words: Test B flooded paddy test. The following applies: Oryza sativa, 250 g ai/ha, Flood. The data set is classed as in vivo. Summed up:
(§1)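 Evaluation by eye, against controls, occurred 13–15 d post-treatment in a greenhouse, using a 0 (no effect) to 100 (complete control) scale. Application was into the paddy water, 3 cm deep over the soil, on 2-leaf plants.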

For data set [2], the system named is ducksalad (Heteranthera limosa). The data set is described as follows: Test B flooded paddy test. The class given is in vivo. The following applies: Heteranthera limosa, 250 g ai/ha, Flood. Summed up: as §1
The test system of data set [3] is barnyardgrass (Echinochloa crus-galli). The data set is described as follows: Test B flooded paddy test. The data set is classed as in vivo. The following applies: Echinochloa crus-galli, 250 g ai/ha, Flood. Summed up:
as §1

For data set [4], the system named is sedge, umbrella (small-flower umbrella sedge, Cyperus difformis). The data set is described as follows: Test B flooded paddy test. The following applies: Cyperus difformis, 250 g ai/ha, Flood. The class given is in vivo. Summed up:
as §1

The mark [5] stands for this setting: Postemergence, visual rating about 10 d after treatment, read-out: Blackgrass plant response rating (0 to 100 scale).
The mark [6] stands for this setting: Postemergence, 0 to 100 scale (0 no effect, 100 complete control), read-out: Plant response rating, Blackgrass.
Setting [7] is: 360 h, visually evaluated after 13 to 15 d, read-out: Plant response rating, Rice (0 to 100 scale where 0 is no effect and 100 is complete control).
Setting [8] is: 360 h, visually evaluated after 13 to 15 d, read-out: Plant response rating, Ducksalad (0 to 100 scale where 0 is no effect and 100 is complete control).
Setting [9] is: 360 h, visually evaluated after 13 to 15 d, read-out: Plant response rating, Barnyardgrass (0 to 100 scale where 0 is no effect and 100 is complete control).
Setting [10] is: 360 h, visually evaluated after 13 to 15 d, read-out: Plant response rating, Sedge, Umbrella (0 to 100 scale where 0 is no effect and 100 is complete control).
Setting [11] is: postemergence, visual injury after approximately 10 d, 0 to 100 scale (0 no effect, 100 complete control), read-out: Plant response rating, Blackgrass.
Where [12] appears, read: scale of 0 to 100 where 0 is no effect and 100 is complete control, read-out: Rice plant response rating.
Where [13] appears, read: scale of 0 to 100 where 0 is no effect and 100 is complete control, read-out: Ducksalad plant response rating.
[14] abbreviates: scale of 0 to 100 where 0 is no effect and 100 is complete control, read-out: Barnyardgrass plant response rating.
Where [15] appears, read: scale of 0 to 100 where 0 is no effect and 100 is complete control, read-out: Sedge, Umbrella plant response rating.

Usually melting point stands for the temperature of the solid-liquid transition.

Like-named read-outs stand apart in the source and are kept apart here.

The molecule `CN1CC(c2cccc(OCC=C(Cl)Cl)c2)C(C(=O)Nc2cccc(F)c2F)C1=O` (centres unmarked) [Compound 1303] returned a melting point of 124 to 127 °C. In addition, the pest or weed control at 125 g/ha in data set [1] (setting [5]) turned out to be 0%. In addition, the pest or weed control at 500 g/ha in data set [1] (setting [6]) was determined as 0%. In the data set with rice (Oryra sativa) (0 to 100 scale where 0 is no effect and 100 is complete control, read-out: Rice plant response rating), the pest or weed control at 250 g/ha stood at 0%. Also, the pest or weed control at 250 g/ha in data set [2] (0 to 100 scale where 0 is no effect and 100 is complete control, read-out: Ducksalad plant response rating) was found to be 0%. For the same molecule, the pest or weed control at 250 g/ha in data set [3] (0 to 100 scale where 0 is no effect and 100 is complete control, read-out: Barnyardgrass plant response rating) came to 0%. Also, the pest or weed control at 250 g/ha in data set [4] (0 to 100 scale where 0 is no effect and 100 is complete control, read-out: Sedge, Umbrella plant response rating) is 0%.
Molecule `O=C1NC[C@H](c2cnc(C(F)(F)F)nc2)[C@H]1C(=O)Nc1cccc(F)c1F` [Compound 1382] returned a melting point of 170 to 173 °C. In addition, the pest or weed control at 125 g/ha in data set [1] (setting [5]) is 0%. In addition, in data set [1] (setting [6]), the pest or weed control at 500 g/ha was found to be 0%. In addition, the pest or weed control at 250 g/ha in the data set with rice (Oryra sativa) (setting [7]) was 0%. For the same molecule, in data set [2] (setting [8]), the pest or weed control at 250 g/ha was 90%. In data set [3] (setting [9]), the pest or weed control at 250 g/ha worked out at 30%. In data set [4] (setting [10]), the pest or weed control at 250 g/ha was 20%.
Take `Cc1c(F)cccc1NC(=O)[C@H]1C(=O)N(C)C[C@@H]1c1ccc(C(F)(F)F)cc1` [Compound 1386]: the melting point is 156 to 160 °C. The pest or weed control at 125 g/ha in data set [1] (Postemergence, visual injury after approx. 10 d, 0 to 100 scale, 0 no effect, 100 complete control, read-out: Plant response rating, Blackgrass) is 70%. Besides, in data set [1] (setting [6]), the pest or weed control at 500 g/ha amounted to 80%. Also, the pest or weed control at 250 g/ha in the data set on rice (Oryra sativa) (setting [7]) was found to be 0%. Also, in data set [2] (setting [8]), the pest or weed control at 250 g/ha was determined as 100%. The pest or weed control at 250 g/ha in data set [3] (setting [9]) was 55%. Also, the pest or weed control at 250 g/ha in data set [4] (setting [10]) is 0%.
Take `C/C=C/C1CNC(=O)C1C(=O)Nc1cccc(F)c1F` (centres unmarked) [Compound 793]: the melting point is 151 to 155 °C. The pest or weed control at 125 g/ha in data set [1] (setting [11]) was 0%. Besides, the pest or weed control at 31 g/ha in data set [1] (Postemergence, 31 g ai/ha, visual injury after approx. 10 d, 0 to 100 scale, 0 no effect, 100 complete control, read-out: Plant response rating, Blackgrass) was found to be 0%. Moreover, the pest or weed control at 250 g/ha in the data set on rice (Oryra sativa) (setting [12]) amounted to 0%. Also, the pest or weed control at 250 g/ha in data set [2] (setting [13]) amounted to 25%. Also, the pest or weed control at 250 g/ha in data set [3] (setting [14]) amounted to 0%. Moreover, in data set [4] (setting [15]), the pest or weed control at 250 g/ha was found to be 25%.
Take `CN1C[C@H](c2ccc(C(F)(F)F)cc2)[C@@H](C(=O)Nc2ccccc2C(F)(F)F)C1=O` [Compound 726]: the melting point was in the range of 108 to 111 °C. For the same molecule, the pest or weed control at 125 g/ha in data set [1] (setting [11]) worked out at 50%. In the data set with rice (Oryra sativa) (setting [12]), the pest or weed control at 250 g/ha worked out at 0%. The pest or weed control at 250 g/ha in data set [2] (setting [13]) worked out at 100%. In addition, in data set [3] (setting [14]), the pest or weed control at 250 g/ha was 55%. Besides, in data set [4] (setting [15]), the pest or weed control at 250 g/ha was determined as 0%.
Consider `Cc1ccc([C@H]2CN(C)C(=O)[C@@H]2C(=O)Nc2ccc(F)c(F)c2F)cc1` [Compound 1378], for which the melting point lay in the range of 101.6 to 102.3 °C. Further, the pest or weed control at 125 g/ha in data set [1] (setting [5]) worked out at 30%. Further, the pest or weed control at 500 g/ha in data set [1] (setting [6]) was 40%. Moreover, in the data set on rice (Oryra sativa) (setting [7]), the pest or weed control at 250 g/ha was 45%. Besides, in data set [2] (setting [8]), the pest or weed control at 250 g/ha turned out to be 95%. Further, in data set [3] (setting [9]), the pest or weed control at 250 g/ha was 85%. For the same molecule, the pest or weed control at 250 g/ha in data set [4] (setting [10]) amounted to 0%.
